Test results published in US10000771B2, “Nuclear targeting sequences” (Yeda Research and Development Co. Ltd., priority 2007, dated 2018).
Ends that are not written are not given here.

Experiments:
COS7 cells = assay: Subcellular fractionation of 2GFP chimeras; format: cell-based
Description: FIG. 9A is an autoradiograph illustrating the subcellular fractionation of transfected SPS, APA, and EPE peptides fused to a 2GFP in COS7 cells. Western blot analysis of aliquots of the fractions were stained with anti GFP Ab to detect the different chimaras, and with anti tubulin and anti c-Jun Abs as markers for the cytoplasmic and nuclear fractions respectively.
Cellular Fractionation: Transfected COS7 cells were starved (0.1% FBS) for 16 h, after which they were washed with ice-cold PBS, suspended in ice-cold buffer H, and centrifuged (12,000×g, 5 min). Then, the nuclear and cytosolic fractions were isolated as described [H. Rubinfeld, T. Hanoch, R. Seger, J. Biol. Chem. 274, 30349 (1999)]. Briefly, the pellets were suspended in 0.1% NP-40 followed by centrifugation (12,000×g, 5 min). The supernatant, containing the cytosolic fraction, was boiled in sample buffer. The pellet was suspended in extraction buffer (420 mM Nacl, 50 mM β-glycerophosphate, 0.5 mM Na3VO4, 1.5 mM MgCl2, 0.2 mM EDTA, 1 mM DTT, 25% glycerol), incubate on ice for 10 min, sonicated (50 W, 2×7 sec), and centrifuged (12,000×g, 5 min). The supernatant, containing the nuclear fraction, was subjected to Western blot.

importin-7 = target: T1, importin-7 (Homo sapiens, UniProt O95373); assay: Coimmunoprecipitation with importin-7; format: binding; conditions: HeLa cells, coimmunoprecipitation, without EGF stimulation
T1 construct: endogenous in cells; host or cells: HeLa
T1 sequence (O95373 whole entry): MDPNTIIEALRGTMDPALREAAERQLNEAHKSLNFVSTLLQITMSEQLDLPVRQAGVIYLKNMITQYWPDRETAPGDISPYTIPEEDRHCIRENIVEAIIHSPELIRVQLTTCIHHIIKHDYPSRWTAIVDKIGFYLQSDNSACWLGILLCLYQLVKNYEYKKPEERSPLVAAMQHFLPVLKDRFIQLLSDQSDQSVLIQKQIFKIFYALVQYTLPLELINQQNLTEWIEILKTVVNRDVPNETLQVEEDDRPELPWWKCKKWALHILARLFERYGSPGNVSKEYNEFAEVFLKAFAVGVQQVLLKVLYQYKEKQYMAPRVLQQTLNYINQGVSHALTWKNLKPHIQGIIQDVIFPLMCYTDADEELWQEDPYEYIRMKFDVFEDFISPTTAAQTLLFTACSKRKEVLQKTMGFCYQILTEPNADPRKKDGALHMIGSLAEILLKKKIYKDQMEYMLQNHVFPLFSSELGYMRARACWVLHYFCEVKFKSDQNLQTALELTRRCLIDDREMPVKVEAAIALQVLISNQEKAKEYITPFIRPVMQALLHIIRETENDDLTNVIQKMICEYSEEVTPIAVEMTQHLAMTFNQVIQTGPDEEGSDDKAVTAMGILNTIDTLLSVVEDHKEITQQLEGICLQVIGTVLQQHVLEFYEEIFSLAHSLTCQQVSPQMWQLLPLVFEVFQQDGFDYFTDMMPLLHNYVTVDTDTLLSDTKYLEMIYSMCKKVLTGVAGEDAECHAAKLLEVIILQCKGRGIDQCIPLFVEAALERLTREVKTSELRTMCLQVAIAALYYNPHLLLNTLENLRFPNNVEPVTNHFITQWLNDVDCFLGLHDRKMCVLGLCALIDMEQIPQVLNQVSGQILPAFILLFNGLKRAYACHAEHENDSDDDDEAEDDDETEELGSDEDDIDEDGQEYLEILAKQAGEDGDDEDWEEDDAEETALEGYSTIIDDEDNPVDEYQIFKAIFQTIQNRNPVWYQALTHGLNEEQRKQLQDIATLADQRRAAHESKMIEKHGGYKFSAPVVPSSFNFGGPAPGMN
Description: FIGS. 19A-19C are autoradiographs illustrating that phospho-SPS interacts with importin-7 and releases Nup153c binding without involvment of importin-β. […]. Interaction of ERK2 with Importin-7 is enhanced by EGF stimulation and EPE mutation. HeLa cells overexpressing WT-ERK (WT), ERK-APA (APA), ERK-EPE (EPE) or GFP were serum starved and treated with EGF (50 ng/ml, 10 min). The extracts of the treated cells were then subjected to coimmunoprecipitation using A/G beads pre-conjugated with anti GFP Ab and mild washes. The coimmunoprecipitated importin-7 (first panel) and importin-β (third panel), as well as their loading amounts (panels 2 and 4 respectively) were determined by WB using anti importin-7 (αImp7) and importin-β (αImpβ) Abs. The equal amount of immunoprecipitated ERKs was determined with anti GFP (αGFP; IP) Ab. FIG. 19B. Interaction of 2GFP-SPS and its mutants with importin-7. HeLa cells overexpressing 2GFP, 2GFP-SPS, 2GFP-APA and 2GFP-EPE constructs were subjected to coimmunoprecipitation as described in FIG. 19A (without EGF stimulation). FIG. 19C. Interaction of NUP153 with WTERK2 and its APA and EPE mutants. NUP153c is elevated in APA-ERK2, but reduced in EPE-ERK2. Immunoprecipitated and stringently washed WT-ERK2 (WT), APA-ERK2 (APA) or ERK2 from […] cells pre-treated with or without TPA (250 nM, 15 min) were incubated with 0.5 μg recombinant His-Nup153c. This was followed by mild washing, and the beads were then subjected to Western blot analysis using anti His (αHis) and anti αGFP Abs.
Immunoprecipitation. Cellular extracts of stimulated transfected cells, were incubated with anti-GFP antibody preconugated to A/G beads (Santa Cruz; (2 hr, 4° C.). Subsequently, the beads were washed twice with HNTG buffer and once with 0.5 M LiCl. The immunoprecipitates were subjected either to Western blotting as described above or to an in vitro phosphatase assay as described under Results.

CHO cells [1] = assay: Fluorescence microscopy of 2GFP chimeras (subcellular localization); format: cell-based; conditions: 24 hr post transfection, serum-starved
Description: FIGS. 8A-8H are photomicrographs illustrating that SPS, APA, and EPE peptides fused to a 2GFP chimera modify its subcellular localization. CHO cells were grown on cover slips and transfected with 19 amino acid from the kinase insert domain of ERK2 including the SPS region (GFP-SPS) fused to a 2GFP chimera and with the same chimeras with substitution of the Ser to Ala (GFP-APA) or substitution to Glu (GFP-EPE). Twenty-four hr later, the cells were serum-starved for 16 hr, fixed, stained with DAPI and visualized by a fluorescence microscope.
(§1) Immunofluorescence Microscopy. Cells were fixed (30 min in 3% paraformaldehyde in PBS or 10 min with ice-cold methanol), followed by 5-min permeabilization with 0.2% Triton X-100 in PBS (23° C.). The fixed cells were sequentially incubated with the appropriate Abs (45 min) followed by rhodamine-conjugated secondary Abs (45 min) and DAPI. Slides were visualized using a fluorescence microscope (Nikon, Japan) at 400× magnifications.
To validate the general importance of the SPS domain, a 19 amino acid sequence surroundings the SPS or the APA and EPE mutants was fused to a dimer of GFP proteins (2GFP). Cellular distribution of the chimeras was detected in CHO cells 24 hr post transfection of the GFP constructs.

endogenous ERKs = assay: Effect of 2GFP chimeras on nuclear translocation of endogenous ERKs; format: cell-based; conditions: CHO cells overexpressing the chimera, TPA 250 nM, 15 min
Description: FIGS. 10A-10X illustrate the effects of the 2GFP chimeras on the nuclear translocation of endogenous ERKs. CHO cells overexpressing 2GFP, 2GFP-SPS, 2GFP-APA and 2GFP-EPE were serum starved and treated with or without TPA (250 nM, 15 min). Subsequently, the cells were fixed and stain with anti-ERK2 (C-14) Ab and with DAPI.
as §1

SPS domain = assay: SPS phosphorylation detected by anti pSPS Ab Western blot; format: cell-based; conditions: cells pretreated (15 min) prior to EGF 50 ng/ml stimulation
Description: FIGS. 4A-4I are autoradiographs characterizing SPS phosphorylation using an Ab to the phosphorylated SPS domain. FIG. 4A illustrates an elevation of pSPS detection upon stimulation. COS cells were transfected with WT-GFP-ERK2. Twenty-four hr after transfection, the cells were serum-starved for 16 hr and subsequently treated with the general stimulator VOOH (V, 100 μM Na3VO4 and 200 μM H2O2, 15 min), TPA (T, 250 nM, 15 min), EGF (E, 50 ng/ml for 15 min), or left untreated (NT). The GFP-ERK2 was immunoprecipitated with anti GFP Ab, extensively washed, and the IP was then subjected to Western blotting with anti phospho SPS-ERK (αphoSPS-ERK) and anti general ERK (αgen-ERK) Abs. FIG. 4B is a time course of SPS phosphorylation. COS7 cells overexpressing WT-GFP-ERK2 were serum starved followed by EGF stimulation for the indicated time points. The lysates were then subjected to Western blot analysis as in FIG. 4A. FIGS. 4C-D. GFP-ERK2 was immunoprecipitated from VOOH stimulated (Act) or non-stimulated (NT), transfected COS7 cells as above. The immunoprecipitated protein was then incubated with shrimp's alkaline phosphates (SAP, 15 units, 30 min, 30° C. in the manufacturer digestion buffer), and subjected to Western blot analysis with anti phosphoSPS-ERK (αpSPS; FIG. 4C), anti phosphoTEY-ERK (αpTEY; FIG. 4D), and anti general-ERK Ab (αgen-ERK; FIGS. 4C, D). FIG. 4E. Elevation of anti pSPS Ab immunoreactivity upon stimulation of endogenous ERKs. Following serum starvation COS7 cells were treated with EGF (50 ng/ml) or VOOH (V, 100 μM Na3VO4 and 200 μM H2O2) for the indicated times. SPS phosphorylation was detected using the anti pSPS Abs, and this was compared to the amount of genral ERKs detected by αgERK. FIG. 4F. Specificity of the anti pSPS Ab. COS7 cells overexpressing either GFP-ERK2 or 244-6A mutant were serum starved for 16 hr, and then treated with EGF (50 ng/ml) for 15 min following WB analysis using αpSPS and αgERK Abs. FIG. 4G. TEY phosphorylation is not required for SPS phosphorylation. COS7 cells overexpressing WT-ERK2 or TEY-AAA were treated as described in D. FIG. 4H. COS7 cells were treated with or without UO126 prior (15 min) to EGF (50 ng/ml) stimulation for the indicated times. SPS-phosphorylation was detected using αpSPS and αgERK Abs. FIG. 4I. Phosphorylation of SPS is mediated by ERK autophosphorylation. […] The phosphorylation (^32P-ERK2) of ERK and its mutants was detected by autoradiography. […]
FIG. 9B is an autoradiograph illustrating that stimulation elevates pSPS phosphorylation of 2GFP-SPS construct. […] The total amount of immunoprecipitated 2GFP-SPS was detected with αGFP Ab. […]

CHO cells [2] = assay: Microscopy of MEK1-GFP constructs (subcellular localization); format: cell-based
Description: FIGS. 14A-14R are photomicrographs illustrating that the NTS motif regulates MEK1 shuttling into the nucleus. CHO cells overexpressing WT-GFP-MEK1 (WT), AAA-GFP-MEK1 (AAA-MEK) and EPE-GFP-MEK1 (EPE-MEK) were starved for 16 hr and treated with LMB (5 ng/ml, 1 hr; LMB), LMB (5 ng/ml, 1 hr)+TPA (250 nM, 15 min; LMB+TPA) or left un treated (NT). Subsequently the cells were fixed, stained with DAPI and visualized by a fluorescent microscope.
as §1
Other proteins that translocate into the nucleus upon stimulation are the MEKs [H. Jaaro, H. Rubinfeld, T. Hanoch, R. Seger, Proc. Natl. Acad. Sci. USA 94, 3742 (1997)]. […] This TPT sequence was also shown to be phosphorylated upon cellular stimulation [S. Matsuda, Y. Gotoh, E. Nishida, J Biol Chem 268, 3277 (Feb. 15, 1993)], and to be involved in protein-protein interaction that can determine subcellular localization [A. Nantel, K. Mohammad-Ali, J. Sherk, B. I. Posner, D. Y. Thomas, J Biol Chem 273, 10475 (Apr. 24, 1998). […]

interaction of 2GFP constructs with importin-7 (importin-7) | Compound | localized in the nucleus (COS7 cells) [%] | cellular distribution (CHO cells [1]) | inhibition of TPA-induced translocation of endogenous ERKs (endogenous ERKs) | anti pSPS Ab reaction with GFP-ERK2 after inhibitor pretreatment (SPS domain) | nuclear accumulation after TPA stimulation (CHO cells [2]; LMB 5 ng/ml + TPA 250 nM, 15 min) | nuclear translocation after leptomycin B (CHO cells [2]; LMB 5 ng/ml, 1 hr)
reduced this interaction | 2GFP-APA: 2GFP-WT with the Ser residues in the SPS domain mutated to Ala (LDQLNHILGILGAPAQEDL; also: fused to 2GFP (large carrier)) | 3 | mainly in the cytoplasm and perinuclear region | more so |  |  | 
elevated it | 2GFP-EPE: 2GFP-WT with the Ser residues in the SPS domain mutated to Glu (LDQLNHILGILGEPEQEDL; also: fused to 2GFP (large carrier)) | 90 | mainly in the nucleus |  |  |  | 
 | N#CC(=C(/N)Sc1ccccc1N)/C(C#N)=C(\N)Sc1ccccc1N [U0126, reference compound] |  |  |  | did not react |  | 
 | EPE-MEK1: GFP-MEK1 with residues 386 and 388 replaced with Glu |  |  |  |  | localized in the nucleus even without stimulation | increased
